Source: patent publication US11166460B2, “α-amino acrylate microbicide, and preparation method therefor and uses thereof” (priority 2017, dated 2021)
Read-outs that look alike come from different tables or passages of the source.

Tests used:
Sclerotinia sclerotiorum = assay: microbe, parasite or virus in culture; format: cell-based; settings: Sclerotinia sclerotiorum, 50 μg/mL
Alternaria solani = assay: Fungicidal activity, fungi growth rate method, AS; format: cell-based; settings: Alternaria solani, 50 μg/mL
Rhizoctonia cerealis = assay: Fungicidal activity, fungi growth rate method, RC; format: cell-based; settings: Ceratobasidium cereale, 50 μg/mL
Botrytis cinerea = assay: Fungicidal activity, fungi growth rate method, BC; format: cell-based; settings: Botrytis cinerea, 50 μg/mL
wheat Gibberella zeae = assay: microbe, parasite or virus in culture; format: cell-based; settings: Fusarium graminearum
Pellicularia sasakii = assay: Fungicidal activity, fungi growth rate method, PS; format: cell-based; settings: 50 μg/mL; read-out: Fungicidal activity, inhibition, PS
[1] = test system: tobacco mosaic virus (TMV); assay: Anti-TMV inducing activity (induction mode), tobacco seedlings; format: in vivo; settings: Tobacco mosaic virus, read-out: Anti-TMV activity, Induction effect (inhibition), 100 μg/mL, tobacco seedlings
[2] = test system: tobacco mosaic virus (TMV); assay: Anti-TMV curative activity (treatment mode), live friction inoculation on tobacco seedlings; format: in vivo; settings: Tobacco mosaic virus, read-out: Anti-TMV activity, Curative effect (inhibition), 100 μg/mL, tobacco seedlings, checked on seventh day
[3] = test system: tobacco mosaic virus (TMV); assay: Anti-TMV inactivation activity (inactivation mode), compound mixed with TMV before inoculation of tobacco leaves; format: in vivo; settings: Tobacco mosaic virus, read-out: Anti-TMV activity, Inactivation effect (inhibition)
Physalospora piricola = assay: Fungicidal activity, fungi growth rate method, PP; format: cell-based; settings: 50 μg/mL; read-out: Fungicidal activity, inhibition, PP
[4] = test system: Phytophthora infestans (Mont) de Bary; assay: microbe, parasite or virus in culture; format: cell-based; settings: Phytophthora infestans
Cercospora arachidicola = assay: Fungicidal activity, fungi growth rate method, CA; format: cell-based; settings: Mycosphaerella arachidis; 50 μg/mL; read-out: Fungicidal activity, inhibition, CA
[5] = test system: tobacco mosaic virus (TMV); assay: Anti-TMV protective activity (protection mode), live friction inoculation on tobacco seedlings; format: in vivo; settings: Tobacco mosaic virus, read-out: Anti-TMV activity, Protection effect (inhibition)
[6] = read-out: Fungicidal activity, inhibition, SS
[7] = read-out: Fungicidal activity, inhibition, AS
[8] = read-out: Fungicidal activity, inhibition, RC
[9] = read-out: Fungicidal activity, inhibition, BC
[10] = read-out: Fungicidal activity, inhibition, GZ
[11] = read-out: Fungicidal activity, inhibition, PI
[12] = read-out: Fungicidal activity (inhibition) against SS: Sclerotinia sclerotiorum
[13] = read-out: Fungicidal activity (inhibition) against GZ: wheat Gibberella zeae
[14] = read-out: Fungicidal activity (inhibition) against BC: Botrytis cinerea
[15] = read-out: Fungicidal activity (inhibition) against PI: Phytophthora infestans (Mont) de Bary

Structure (SMILES)	inhibition at 50 µg/mL (Sclerotinia sclerotiorum; [6]) [%]	inhibition at 50 µg/mL (Alternaria solani; [7]) [%]	inhibition at 50 µg/mL (Rhizoctonia cerealis; [8]) [%]	inhibition at 50 µg/mL (Botrytis cinerea; [9]) [%]	inhibition at 50 µg/mL (wheat Gibberella zeae; [10]) [%]	inhibition at 50 µg/mL (Pellicularia sasakii) [%]	melting point [°C]	inhibition at 100 µg/mL [1] [%]	inhibition at 100 µg/mL [2] [%]	inhibition at 100 µg/mL [3] [%]	inhibition at 50 µg/mL (Physalospora piricola) [%]	inhibition at 50 µg/mL [4, 11] [%]	inhibition at 50 µg/mL (Cercospora arachidicola) [%]	inhibition at 100 µg/mL [5] [%]	inhibition at 50 µg/mL (Sclerotinia sclerotiorum; [12]) [%]	inhibition at 50 µg/mL (wheat Gibberella zeae; [13]) [%]	inhibition at 50 µg/mL (Rhizoctonia cerealis; read-out: Fungicidal activity (inhibition) against RC: Rhizoctonia cerealis) [%]	inhibition at 50 µg/mL (Botrytis cinerea; [14]) [%]	inhibition at 50 µg/mL [4, 15] [%]	inhibition at 50 µg/mL (Alternaria solani; read-out: Fungicidal activity (inhibition) against AS: Alternaria solani) [%]
O=C(N/C(=C\c1ccco1)C(=O)N1CCC(O)(c2ccc(Br)cc2)CC1)C1CCCCC1 [Compound 63, (Z)-N-[1-[[4-(4-bromophenyl)-4-hydroxy-1-piperidinyl]carbonyl]-2-(2-furanyl)ethenyl]cyclohexanecarboxamide]	44	29	21	35	57	14	121 to 123	9	36	50	18	21	24	53	–	–	–	–	–	–
CC(C)(C)OC(=O)N1CCC(c2nc(C(=O)NCC(=O)O)cs2)CC1 [Compound 65, N-[[4-[2-[4-(1-Boc-piperidine)]thiazol]]formyl]ethanoic acid]	67	9	10	10	16	9	183 to 185	38	0	40	3	18	10	39	–	–	–	–	–	–
O=C(O)/C(=C/c1ccccc1)NC(=O)C1CC1 [Compound 67, (Z)-2-cyclopropanoylamino-3-phenylpropenoic acid]	67	20	10	19	23	6	193 to 195	34	52	57	3	13	15	78	–	–	–	–	–	–
O=C(O)/C(=C/c1ccccc1)NC(=O)c1ccc(C(F)(F)F)cc1 [Compound 68, (Z)-2-[4-(trifluoromethyl)benzoylamino]-3-phenylpropenoic acid]	73	13	9	20	17	13	184 to 186	34	0	3	7	18	12	37	60 to 80	–	–	–	–	–
O=C(O)/C(=C/c1ccccc1)NC(=O)c1cccs1 [Compound 69, (Z)-2-(2-thiophanoylamino)-3-phenylpropenoic acid]	78	17	10	7	19	6	221 to 223	45	0	1	7	17	16	27	60 to 80	–	–	–	–	–
Cc1snnc1/C=C(\NC(=O)c1ccccc1)C(=O)O [Compound 70, (Z)-2-benzoylamino-3-[4-(5-methyl-1,2,3-thiadiazol)]propenoic acid]	44	14	18	12	21	14	190 to 192	37	37	3	0	13	24	17	–	–	–	–	–	–
Cc1nnsc1/C=C(\NC(=O)c1ccccc1)C(=O)O [Compound 71, (Z)-2-benzoylamino-3-[5-(4-methyl-1,2,3-thiadiazol)]propenoic acid]	47	14	18	12	86	9	215 to 217	27	0	67	6	21	24	53	–	86	–	–	–	–
CC(C)(C)OC(=O)N1CCC(c2nc(/C=C3\N=C(c4ccccc4)OC3=O)cs2)CC1 [Compound 73]	89	36	24	10	23	20	189 to 191	8	0	59	19	24	16	11	80 to 95	–	–	–	–	–
CC(C)(C)OC(=O)N1CCC(c2nc(/C=C(\NC(=O)c3ccccc3)C(=O)O)cs2)CC1 [Compound 74, (Z)-2-benzoylamino-3-[4-[2-[4-(1-Boc-piperidine)]thiazol]]propenoic acid]	89	36	44	41	42	38	125 to 127	63	3	0	32	40	39	48	80 to 95	–	44	41	40	–
Cc1nnsc1/C=C1\N=C(c2ccccc2)OC1=O [Compound 77, (4Z)-4-[5-(4-methyl-1,2,3-thiadiazol)ethenyl]-2-phenyl-1,3-oxazol-5-(4H)-one]	47	11	23	12	43	14	196 to 198	44	0	0	6	16	24	40	47	–	–	–	–	–
Cc1snnc1/C=C1\N=C(c2ccccc2)OC1=O [Compound 78, (4Z)-4-[4-(5-methyl-1,2,3-thiadiazol)ethenyl]-2-phenyl-1,3-oxazol-5-(4H)-one]	53	29	18	26	57	3	149 to 151	68	0	47	15	26	21	0	–	57	–	26	26	29
